Reference: patent US20210322327A1, “EXTRACELLULAR VESICLES COMPRISING STING-AGONIST” (Codiak BioSciences, Inc., priority 2018, published 2021)

Columns and labels:
B16F10 melanoma cells = experiment: B16F10 subcutaneous primary tumor growth in lung metastasis challenge study; type: in vivo, C57BL/6 mice; details: by day 17
Source text: (§1) Activation of the STING pathway promotes antigen presentation and induces a durable T-cell response, as shown in Examples 11 and 12. Thus, the immune memory response induced by EXOSTING™ may be sufficient to prevent tumor metastasis after a local administration in a primary tumor. To test this hypothesis, exosomes purified from HEK293SF cells overexpressing PTGFRN were loaded with the cyclic dinucleotide 3-3 cAIMPdFSH as described in Example 1. C57BL/6 mice were inoculated subcutaneously with 1×10^6 B16F10 melanoma cells on day zero and challenged with an additional tail vein injection of 1×10^5 B16F10 melanoma cells to seed lung metastases (n=8 mice per group). Five, eight, and eleven days post-inoculation the mice were injected intratumorally at the subcutaneous tumor with PBS, 20 μg 3-3 cAIMPdFSH, 120 ng 3-3 cAIMPdFSH, or either 120 ng, 12 ng, or 1.2 ng 3-3 cAIMPdFSH loaded in PTGFRN-overexpressing exosomes (Exo STING Agonist). […] Lungs from all mice were harvested, imaged, and counted for metastases. […] As little as 12 ng of Exo STING Agonist prevented lung metastasis to the same extent as 20 μg STING Agonist (FIGS. 46B and 47).

B16F10 lung metastases = B16F10 lung metastases after intratumoral treatment of the subcutaneous tumor; type: in vivo, C57BL/6 mice; details: 20 μg intratumoral
Source text: as §1

STING pathway = experiment: Cytokine levels after single intratumoral dose in C57BL/6 and STING knock-out tumor-bearing mice; type: in vivo, C57BL/6 mice and C57BL/6-Tmem173^gt mice; details: C57BL/6 mice; 20 μg intratumoral, four hours
Protocol: Three groups of C57BL/6 mice and C57BL/6-Tmem173^gt mice (4-5 mice per group) were inoculated subcutaneously with 1×10^6 B16F10 tumor cells. Eight days post-inoculation the mice were injected with a single intratumoral dose of PBS, 20 μg of free 3-3 cAIMPdFSH, or 0.1 μg of 3-3 cAIMPdFSH loaded in PTGFN-overexpressing exosomes (exeSTING). Four hours post-injection the tumors, draining lymph nodes, spleens, and serum were collected and cytokine levels were measured. […] In addition to gene expression, serum cytokine profiles are showing same trend (FIG. 58).

[1] = tested on: B16F10 murine melanoma cells; experiment: B16F10 tumor growth in C57BL/6 and STING knock-out mice; type: in vivo, C57BL/6 mice and C57BL/6-Tmem173^gt mice
Protocol: To confirm that the effects observed in FIGS. 54-58 were translated to anti-tumor activity, C57BL/6 mice and C57BL/6-Tmem173^gt mice were inoculated subcutaneously with 1×10^6 B16F10 murine melanoma cells (n=5 mice per group). Seven, ten, and thirteen days post-inoculation, the mice were injected intratumorally with PBS, exosomes, 20 μg of free 3-3 cAIMPdFSH, or 0.1 μg of 3-3 cAIMPdFSH loaded in PTGFRN-overexpressing exosomes. Tumor volumes were measured daily until day 19, and animals were sacrificed when tumor volume reached 2000 mm^3.

[2] = tested on: B16F10 murine melanoma cells; experiment: Dual flank B16F10 model, injected and contralateral tumors; type: in vivo, C57BL/6 mice
Source text: In addition, activation of the STING pathway induces the upregulation of immune pathway checkpoints, which subsequently reduce T-cell-mediated cell killing, and thus moderate the effects of STING pathway agonism as a therapeutic rationale (Cell Rep. 2015 May 19; 11(7):1018-30). To test both hypotheses, C57BL/6 mice were inoculated subcutaneously with 1×10^6 and 5×10^5 B16F10 murine melanoma cells into right and left flank of mice, respectively (n=5 mice per group). Seven, ten, and thirteen days post-inoculation, the tumor at right flank were injected intratumorally with exosomes, 20 μg of free 3-3 cAIMPdFSH, 0.1 μg of free 3-3 cAIMPdFSH, or 0.1 μg 3-3 cAIMPdFSH loaded in PTGFRN-overexpressing exosomes, with a control antibody (α-IgG; 10 mg/kg; BioLegend, Catalog #400559, Clone RTK3758) or an antagonistic antibody against PD-1 (a PD-1; 10 mg/kg; BioLegend, Catalog #114111, Clone RMPI-14). Antibodies were injected intraperitoneally. Tumor volumes were measured daily until day 21, and animals were sacrificed when tumor volume reached 2000 mm^3.

[3] = tested on: B16F10 murine melanoma cells; experiment: B16F10 melanoma tumor growth, intratumoral injection; type: in vivo, C57BL/6 mice; details: for tumor growth compared to PBS: day 25
Protocol: To test this hypothesis, C57BL/6 mice were inoculated subcutaneously with 5×10^5 B16F10 murine melanoma cells (n=5 mice per group). Five, eight, and eleven days post-inoculation the mice were injected intratumorally with PBS, 20 μg ML RR-S2, 0.2 μg ML RR-S2, or 0.2 μg ML RR-S2 loaded in PTGFRN-overexpressing exosomes Tumor volumes were measured daily until day 39, and animals were sacrificed when tumor volume reached 2000 mm^3.

[4] = 20 μg intratumoral days 5, 8, 11

SMILES | primary tumor growth (B16F10 melanoma cells; 120 ng free) | primary tumor growth (B16F10 melanoma cells; [4]) | lung lesions by histology (B16F10 lung metastases) | lung metastases compared to PBS (B16F10 lung metastases) | IFNβ gene expression in tumors, draining lymph node, spleen (STING pathway) | tumor regression ([1]; C57BL/6-Tmem173^gt mice, 20 μg free) | tumor regression ([1]; C57BL/6 mice, free, printed 20 g, days 7, 10, 13) | injected tumor growth ([2]; 0.1 μg free + IgG or Anti-PD1) | contralateral (not injected) tumor ([2]; 20 μg free) | contralateral tumor reduction with anti-PD1 ([2]; 20 μg free + anti-PD-1 10 mg/kg IP) | injected tumor growth ([2]; 20 μg free, regardless of anti-PD1) | tumor growth compared to PBS ([3]; 0.2 μg intratumoral days 5, 8, 11) | complete response (undetectable tumors at the site of inoculation) ([3]; 20 μg intratumoral) | tumor growth compared to PBS [3, 4]
Nc1ncnc2c1ncn2[C@@H]1O[C@@H]2COP(=O)(S)O[C@H]3[C@@H](F)[C@H](n4cnc5c(=O)[nH]cnc54)O[C@@H]3COP(O)(=S)O[C@H]2[C@H]1F (some centres unmarked) [3-3 cAIMPdFSH, 3′3′-cAIMPdFSH] | no tumor regression observed | did not grow | significant amount of lung lesions inside of lung | dramatically reduced | comparable in the 20 μg free STING agonist and 0.1 μg exosome-STING agonist groups | no tumor regression was observed | dramatically improved tumor regression | moderately potentiated | significant tumor reduction | more strengthened with anti-PD1 combination | Almost completely eliminated |  |  | 
Nc1ncnc2c1ncn2[C@@H]1O[C@@H]2COP(O)(=S)O[C@@H]3C(O)[C@@H](COP(O)(=S)O[C@H]2[C@H]1O)O[C@H]3n1cnc2c(N)ncnc21 (some centres unmarked) [ML RR-S2 CDA] |  |  |  |  |  |  |  |  |  |  |  | moderately potentiated | three out of five | almost completely eliminated
